Measured values published in patent US4165384A, “Amide substituted phenoxy propanol amines” (priority 1974, dated 1979).
Where two headings read alike, the source gives them in different places.

Columns and labels:
[1] = test system: heart; assay: Intrinsic β-mimetic activity on the heart (increased heart rate), reserpinized cat; format: in vivo; conditions: i.v.
Protocol: (§1) The β-receptor blocking agents of the present invention were tested as regards their biological properties. All compounds were thereby tested in anesthetized cats (males and females weighing 2.5-3.5 kg) pretreated with reserpine (5 mg/kg body weight administered intra musculary) about 16 hours before the experiments. The animals were pretreated with reserpine in order to eliminate the endogenous sympathetic control of heart rate and vascular smooth muscle tone. The cats were anaesthetized with pentobarbital (30 mg/kg body weight administered i.p.) and artifically ventilated with room air. A bilateral vagotomy was performed in the neck. Blood pressure was obtained from a cannulated carotid artery and heart rate was registered from a cardiotachometer, triggered by the electrocardiogram. (ECG) Intrinsic beta-mimetic activity on the heart was seen as increased heart rate after drug administration. The test compounds were given intravenously in logarithmically increasing doses. The values obtained were plotted on dose-response curves, from which affinity values (ED50) were estimated. At the end of each experiment high doses of isoprenaline were given in order to obtain the maximal heart rate response.

[2] = Effect on arterial blood pressure in conscious dogs; format: in vivo, Beagle dogs; conditions: conscious dog, after 1.5 mg/kg i.v.; for ΔBP Supino: supine
Protocol: The compounds were also tested on conscious dogs. Beagle dogs were trained to be lying quietly and to be lifted to an erect position by placing their forelegs on a table for 2 minutes. Arterial blood pressure was registered via a blood pressure transducer attached to the dog at the heart level. Heart rate was triggered from the ECG. All dogs were pretreated with methylscopolamine to avoid vagal influences. Recordings were taken before and 15 and 75 min after administration of the test compound, first in supine position for 2 min and then in the erect position for 2 minutes. The test compounds were given in increasing doses with 2 hours intervals.

[3] = target: T1, cardial β-receptors (Felis catus, UniProt Q9TST6); assay: Block of isoprenaline, heart rate (HR), reserpinized anesthetized cat; format: in vivo; conditions: iv, read-out: Block of isopren ED50 HR
T1 construct: from tissue; host or cells: heart in situ of anesthetized, reserpinized, vagotomized cat (in vivo, heart rate)
Protocol: as §1

[4] = target: T2, vascular β-receptors (Felis catus, UniProt Q9TST5); assay: Block of isoprenaline, PR (vascular), reserpinized anesthetized cat; format: in vivo; conditions: iv, read-out: Block of isopren ED50 PR
T2 construct: from tissue; host or cells: vascular smooth muscle in situ of anesthetized, reserpinized cat (in vivo, isoprenaline vasodilation)
Protocol: as §1

[5] = reserpinized cat, i.v., heart rate

T1 sequence (Q9TST6 whole entry): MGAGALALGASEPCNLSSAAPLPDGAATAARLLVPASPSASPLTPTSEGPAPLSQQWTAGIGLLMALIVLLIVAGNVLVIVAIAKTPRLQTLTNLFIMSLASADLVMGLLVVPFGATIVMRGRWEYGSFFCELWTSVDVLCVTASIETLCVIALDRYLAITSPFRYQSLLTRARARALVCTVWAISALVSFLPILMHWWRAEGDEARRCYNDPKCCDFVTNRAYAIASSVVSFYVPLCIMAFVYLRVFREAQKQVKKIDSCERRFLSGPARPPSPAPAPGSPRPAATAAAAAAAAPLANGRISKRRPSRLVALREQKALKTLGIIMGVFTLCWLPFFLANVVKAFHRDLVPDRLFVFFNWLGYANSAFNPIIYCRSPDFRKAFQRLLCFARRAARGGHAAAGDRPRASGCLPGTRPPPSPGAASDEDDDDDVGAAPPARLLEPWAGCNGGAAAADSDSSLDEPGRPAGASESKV
T2 sequence (Q9TST5 whole entry): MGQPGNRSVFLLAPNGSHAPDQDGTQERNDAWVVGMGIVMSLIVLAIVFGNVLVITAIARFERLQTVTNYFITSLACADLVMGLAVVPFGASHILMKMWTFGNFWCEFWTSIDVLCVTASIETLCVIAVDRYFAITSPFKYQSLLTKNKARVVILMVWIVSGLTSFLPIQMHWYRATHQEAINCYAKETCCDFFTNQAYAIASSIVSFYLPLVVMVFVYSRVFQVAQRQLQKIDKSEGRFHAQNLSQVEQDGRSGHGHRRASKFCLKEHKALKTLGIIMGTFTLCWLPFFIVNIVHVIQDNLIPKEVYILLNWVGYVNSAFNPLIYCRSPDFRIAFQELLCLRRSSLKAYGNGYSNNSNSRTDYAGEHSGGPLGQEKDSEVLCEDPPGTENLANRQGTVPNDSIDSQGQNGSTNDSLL

SMILES	ED50 ([4]; reserpinized cat, i.v., PR) [mg/kg]	Intrinsic activity [1]	ΔBP Erect [2] [mm Hg]	ΔBP Supino [2]	ED50 [3, 5] [mg/kg]	ED50 ([3]; cat) [mg/kg]	ED50 ([4]; cat) [mg/kg]
C=CCc1ccccc1OCC(O)CNCCOc1ccc(C(N)=O)cc1 (stereo not drawn) [Ex 1, 1[2-(4-carbamylphenoxy)-ethylamino]-3-(2-allylphenoxy)propanol-2]	1.8	0 beats/min	-45	-28 mm Hg	0.3	–	–
Cc1ccc(Cl)c(OCC(O)CNCCOc2ccc(C(N)=O)cc2)c1 (stereo not drawn) [Ex 2, 1-[2-(4-carbamylphenoxy)ethylamino]-3-(2-chloro-5-methylphenoxy)propanol-2]	4.6	0 beats/min	–	–	0.3	–	–
COCCc1ccc(OCC(O)CNCCOc2ccc(C(N)=O)cc2)cc1 (stereo not drawn) [Ex 3, 1-[2-(4-carbamylphenoxy)ethylamino]-3-(2-methoxyethyl)phenoxypropanol-2]	8.5	0 beats/min	–	–	1.1	–	–
C=CCc1ccccc1OCC(O)CNC(C)COc1ccc(C(N)=O)cc1 (stereo not drawn) [Ex 5, 1-[1-methyl-2-(4-carbamylphenoxy)ethylamino]-3-(2-allylphenoxy)propanol-2]	0.2	+15 beats/min	-42	-43 mm Hg	0.05	–	–
COCCc1ccc(OCC(O)CNC(C)C)cc1 (stereo not drawn) [Metroprolol, 1-isopropylamino-3-[4-(2-methoxyethyl)phenoxy]-propanol-2, reference compound]	–	0 beats/min	-3	-5 mm Hg	–	0.2	4.7
CC(C)NCC(O)COc1cccc2ccccc12 (stereo not drawn) [Propranolol, 1-isopropylamino-3-(1-naphtoxy)-propanol-2, reference compound]	–	0 beats/min	0	+5 mm Hg	–	–	–

Continued, in another order:

ED50 ([4]; reserpinized cat, i.v., PR) [mg/kg]	SMILES	Intrinsic activity [1]	ΔBP Erect [2] [mm Hg]	ΔBP Supino [2]	ED50 [3, 5] [mg/kg]	ED50 ([3]; cat) [mg/kg]	ED50 ([4]; cat) [mg/kg]
0.5	C=CCc1ccccc1OCC(O)CNC(C)COc1ccccc1C (stereo not drawn) [Ex 6, 1-[1-methyl-2-(2-methylphenoxy)-ethylamino]-3-(2-allylphenoxy)propanol-2]	+24 beats/min	–	–	0.5	–	–
2.4	COC(=O)NCCc1ccc(OCCNCC(O)COc2ccccc2C)cc1 (stereo not drawn) [Ex 9, 1-[4-(2-(2-methoxycarbonylamino)ethyl)phenoxyethylamino]-3-(2-methylphenoxy)-propanol-2]	+40 beats/min	–	–	0.3	–	–
1	NC(=O)c1ccc(OCCNCC(O)COc2ccccc2Cl)cc1 (stereo not drawn) [Ex 11, 1-[2-(4-carbamoylphenoxy)ethylamino]-3-(2-chlorophenoxy)propanol-2]	+16 beats/min	-20	-28 mm Hg	0.05	–	–
1.5	C=CCOc1ccccc1OCC(O)CNCCOc1ccc(C(N)=O)cc1 (stereo not drawn) [Ex 17]	+8 beats/min	-46	-23 mm Hg	0.1	–	–
0.3	C#CCOc1ccccc1OCC(O)CNCCOc1ccc(C(N)=O)cc1 (stereo not drawn) [Ex 18]	+13 beats/min	–	–	0.04	–	–
< 8.5	NC(=O)Cc1ccccc1OCC(O)CNCCOc1ccc(C(N)=O)cc1 (stereo not drawn) [Ex 19]	0 beats/min	–	–	1.7	–	–
< 8.5	NC(=O)c1ccc(OCCNCC(O)COc2ccccc2OCC(=O)NCCO)cc1 (stereo not drawn) [Ex 20, 1-[2-(4-carbamylphenoxy)ethylamino]-3-[2-(ω-hydroxyethylaminocarbonylmethoxy)phenoxy]-propanol-2]	–	–	–	0.03	–	–
35	CC(=O)Nc1ccc(OCC(O)CNC(C)C)cc1 (stereo not drawn) [Practolol, 4-(2-hydroxy-3-isopropylaminopropoxy)acetanilide, reference compound]	+15 beats/min	–	–	0.3	–	–
